Common to all, as to experiment: Kinase Selectivity Assay (CEREP, HTRF)
Holding throughout (format): biochemical
On the technique in general: TR-FRET usually uses a lanthanide donor and a delayed reading to cut background.

For one test, the target named is IRK (InsR) (Homo sapiens, UniProt P06213). Conditions: read-out: % Inhibition at 10 μM Concentration, IRK (InsR). As for the experimental part:
(§1) kinase, ROCK2, RSK2, Src kinase, Syk, and TRKA. The % Inhibition was determined

Another test concerns the target Src kinase (Homo sapiens, UniProt P12931). The conditions noted are these: read-out: % Inhibition at 10 μM Concentration, Src. The protocol: as §1
Another test deals with RSK2 (Homo sapiens, UniProt P51812). Conditions: read-out: % Inhibition at 10 μM Concentration, RSK2. The protocol: as §1
The target of the next test is T1, CHK1 (Homo sapiens, UniProt O14757).
T1 construct: CEREP, France (ran the assays)
T1 sequence (O14757 1-476): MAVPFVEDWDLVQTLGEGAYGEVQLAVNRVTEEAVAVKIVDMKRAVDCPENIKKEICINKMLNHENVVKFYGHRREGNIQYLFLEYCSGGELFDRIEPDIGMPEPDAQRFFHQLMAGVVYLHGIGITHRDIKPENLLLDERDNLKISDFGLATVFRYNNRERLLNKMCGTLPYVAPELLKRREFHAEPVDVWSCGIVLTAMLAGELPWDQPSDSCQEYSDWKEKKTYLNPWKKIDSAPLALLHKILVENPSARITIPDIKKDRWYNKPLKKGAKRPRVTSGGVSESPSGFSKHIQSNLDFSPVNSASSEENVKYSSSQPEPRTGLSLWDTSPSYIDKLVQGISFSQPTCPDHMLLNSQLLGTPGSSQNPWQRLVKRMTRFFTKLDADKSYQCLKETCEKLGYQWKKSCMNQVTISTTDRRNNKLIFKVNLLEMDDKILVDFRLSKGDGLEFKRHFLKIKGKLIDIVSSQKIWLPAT
The conditions noted are these: read-out: % Inhibition at 10 μM Concentration, CHK1. The protocol:
as §1

Another test has as its target Lck kinase (Homo sapiens, UniProt P06239). The conditions noted are these: read-out: % Inhibition at 10 μM Concentration, Lck. The protocol:
as §1

A further test addresses Lyn (Homo sapiens, UniProt P07948). Conditions: read-out: % Inhibition at 10 μM Concentration, Lyn. The protocol: as §1
The next test addresses PKA (Homo sapiens, UniProt P17612). Conditions: read-out: % Inhibition at 10 μM Concentration, PKA. As for the experimental part: as §1
The target in the next test is Syk (Homo sapiens, UniProt P43405). The conditions noted are these: read-out: % Inhibition at 10 μM Concentration, Syk. As for the experimental part: as §1
The target of a further test is MEK1/MAP2K1 (Homo sapiens, UniProt Q02750). The conditions noted are these: read-out: % Inhibition at 10 μM Concentration, MEK1/MAP2K1. The protocol: as §1
The target of another test is T2, ERK2 (P42mapk) (Homo sapiens, UniProt P28482).
T2 construct: CEREP, France (ran the assays)
Conditions: read-out: % Inhibition at 10 μM Concentration, ERK (P42mapk). As for the experimental part: as §1

For a further test, the target named is T3, ERK1 (Homo sapiens, UniProt P27361).
T3 construct: CEREP, France (ran the assays)
Conditions: read-out: % Inhibition at 10 μM Concentration, ERK1. As for the experimental part:
as §1

The target of the next test is PKCb1 (Homo sapiens, UniProt P05771). The conditions noted are these: read-out: % Inhibition at 10 μM Concentration, PKCbeta 1. As for the experimental part: as §1
For a further test, the target named is MAPKAPK2 (Homo sapiens, UniProt P49137). Conditions: read-out: % Inhibition at 10 μM Concentration, MAPKAPK2. As for the experimental part: as §1
The target in a further test is IGF1R kinase (Homo sapiens, UniProt P08069). The conditions noted are these: read-out: % Inhibition at 10 μM Concentration, IGF1R. The protocol:
as §1

For a further test, the target named is ROCK2 (Homo sapiens, UniProt O75116). Conditions: read-out: % Inhibition at 10 μM Concentration, ROCK2. The protocol:
as §1

Another test deals with T4, Brk (Homo sapiens, UniProt Q13882).
T4 construct: CEREP, France (ran the assays)
The conditions noted are these: read-out: % Inhibition at 10 μM Concentration, Brk. As for the experimental part: as §1

In another test the target is KDR kinase (VEGFR2) (Homo sapiens, UniProt P35968). The conditions noted are these: read-out: % Inhibition at 10 μM Concentration, KDR (VEGFR2). As for the experimental part: as §1

The structures appear in SMILES notation.

IGF1R kinase, sequence (P08069 31-1367): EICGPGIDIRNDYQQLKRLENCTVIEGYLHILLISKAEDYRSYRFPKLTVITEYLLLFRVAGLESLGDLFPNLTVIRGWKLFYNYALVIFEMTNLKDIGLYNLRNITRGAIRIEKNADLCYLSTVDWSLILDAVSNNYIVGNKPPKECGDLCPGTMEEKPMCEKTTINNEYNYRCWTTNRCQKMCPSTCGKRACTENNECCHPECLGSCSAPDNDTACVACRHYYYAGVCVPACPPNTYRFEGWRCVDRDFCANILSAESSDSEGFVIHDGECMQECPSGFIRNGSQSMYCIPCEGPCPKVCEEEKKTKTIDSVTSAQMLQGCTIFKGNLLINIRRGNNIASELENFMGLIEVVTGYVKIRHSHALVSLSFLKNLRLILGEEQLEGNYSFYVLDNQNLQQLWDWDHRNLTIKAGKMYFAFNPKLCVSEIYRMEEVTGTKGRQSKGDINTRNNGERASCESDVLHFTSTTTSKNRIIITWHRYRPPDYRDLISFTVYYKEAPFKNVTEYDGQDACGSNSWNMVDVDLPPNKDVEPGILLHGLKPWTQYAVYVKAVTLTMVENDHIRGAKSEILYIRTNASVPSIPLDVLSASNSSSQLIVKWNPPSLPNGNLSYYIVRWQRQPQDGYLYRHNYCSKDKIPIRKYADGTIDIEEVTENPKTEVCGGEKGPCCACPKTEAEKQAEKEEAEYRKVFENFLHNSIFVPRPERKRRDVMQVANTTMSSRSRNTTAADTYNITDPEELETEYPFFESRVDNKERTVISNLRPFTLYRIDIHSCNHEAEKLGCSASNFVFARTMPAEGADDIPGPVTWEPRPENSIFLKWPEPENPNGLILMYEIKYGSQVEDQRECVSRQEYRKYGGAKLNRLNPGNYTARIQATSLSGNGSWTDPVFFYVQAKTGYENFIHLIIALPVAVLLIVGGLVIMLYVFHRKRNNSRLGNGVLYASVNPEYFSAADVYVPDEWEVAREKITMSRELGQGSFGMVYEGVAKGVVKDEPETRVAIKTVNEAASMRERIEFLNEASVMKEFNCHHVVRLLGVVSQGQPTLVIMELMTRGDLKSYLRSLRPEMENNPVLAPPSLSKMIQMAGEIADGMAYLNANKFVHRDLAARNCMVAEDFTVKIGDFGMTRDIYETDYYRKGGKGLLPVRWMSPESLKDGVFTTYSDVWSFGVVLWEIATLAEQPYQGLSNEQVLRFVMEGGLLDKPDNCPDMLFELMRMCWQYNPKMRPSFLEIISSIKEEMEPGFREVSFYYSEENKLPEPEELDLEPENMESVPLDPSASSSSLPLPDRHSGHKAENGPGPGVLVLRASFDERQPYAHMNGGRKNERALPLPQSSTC
MAPKAPK2, sequence (P49137 whole entry): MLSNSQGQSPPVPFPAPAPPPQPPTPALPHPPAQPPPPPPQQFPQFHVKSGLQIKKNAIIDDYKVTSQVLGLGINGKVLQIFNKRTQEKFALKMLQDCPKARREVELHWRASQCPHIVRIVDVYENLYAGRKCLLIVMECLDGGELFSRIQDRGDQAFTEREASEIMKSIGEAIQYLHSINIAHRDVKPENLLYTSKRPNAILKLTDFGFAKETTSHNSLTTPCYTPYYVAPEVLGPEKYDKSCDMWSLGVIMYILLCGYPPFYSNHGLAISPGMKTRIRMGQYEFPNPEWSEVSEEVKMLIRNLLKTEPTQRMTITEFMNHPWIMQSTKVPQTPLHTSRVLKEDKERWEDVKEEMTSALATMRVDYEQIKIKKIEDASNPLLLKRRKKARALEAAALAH
T3 sequence (P27361 whole entry): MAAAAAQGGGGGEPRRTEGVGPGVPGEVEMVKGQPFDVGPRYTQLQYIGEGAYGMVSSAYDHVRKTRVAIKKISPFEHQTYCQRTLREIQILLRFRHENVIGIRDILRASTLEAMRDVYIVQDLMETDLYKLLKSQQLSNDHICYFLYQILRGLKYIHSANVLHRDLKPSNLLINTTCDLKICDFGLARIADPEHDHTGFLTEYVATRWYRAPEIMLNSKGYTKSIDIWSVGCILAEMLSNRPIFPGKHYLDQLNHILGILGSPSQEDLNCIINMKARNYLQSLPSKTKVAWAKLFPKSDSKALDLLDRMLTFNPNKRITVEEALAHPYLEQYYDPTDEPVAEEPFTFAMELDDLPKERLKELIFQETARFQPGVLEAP
Lck kinase, sequence (P06239 whole entry): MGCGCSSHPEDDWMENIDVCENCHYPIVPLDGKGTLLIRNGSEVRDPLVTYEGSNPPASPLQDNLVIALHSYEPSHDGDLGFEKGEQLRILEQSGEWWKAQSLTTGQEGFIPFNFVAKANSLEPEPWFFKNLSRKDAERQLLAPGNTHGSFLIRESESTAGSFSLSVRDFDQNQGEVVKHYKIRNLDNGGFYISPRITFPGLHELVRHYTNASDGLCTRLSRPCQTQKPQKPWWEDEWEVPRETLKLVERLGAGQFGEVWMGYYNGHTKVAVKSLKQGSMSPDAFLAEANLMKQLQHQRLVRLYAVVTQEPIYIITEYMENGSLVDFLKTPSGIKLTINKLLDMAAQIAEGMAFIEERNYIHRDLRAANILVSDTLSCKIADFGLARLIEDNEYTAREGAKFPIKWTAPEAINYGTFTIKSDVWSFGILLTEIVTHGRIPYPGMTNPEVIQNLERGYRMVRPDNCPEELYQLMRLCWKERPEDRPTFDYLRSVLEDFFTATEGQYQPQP
T2 sequence (P28482 whole entry): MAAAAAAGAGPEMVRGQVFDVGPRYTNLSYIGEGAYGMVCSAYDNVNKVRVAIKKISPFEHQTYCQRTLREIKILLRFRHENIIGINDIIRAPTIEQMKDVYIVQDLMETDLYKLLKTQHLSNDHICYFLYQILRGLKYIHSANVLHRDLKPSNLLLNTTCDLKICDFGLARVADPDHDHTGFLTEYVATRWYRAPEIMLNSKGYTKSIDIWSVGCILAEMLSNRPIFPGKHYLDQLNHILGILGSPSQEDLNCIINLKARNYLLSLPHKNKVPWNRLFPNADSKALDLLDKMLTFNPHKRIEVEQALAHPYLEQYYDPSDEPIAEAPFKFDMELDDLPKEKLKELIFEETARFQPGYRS
MEK1/MAP2K1, sequence (Q02750 whole entry): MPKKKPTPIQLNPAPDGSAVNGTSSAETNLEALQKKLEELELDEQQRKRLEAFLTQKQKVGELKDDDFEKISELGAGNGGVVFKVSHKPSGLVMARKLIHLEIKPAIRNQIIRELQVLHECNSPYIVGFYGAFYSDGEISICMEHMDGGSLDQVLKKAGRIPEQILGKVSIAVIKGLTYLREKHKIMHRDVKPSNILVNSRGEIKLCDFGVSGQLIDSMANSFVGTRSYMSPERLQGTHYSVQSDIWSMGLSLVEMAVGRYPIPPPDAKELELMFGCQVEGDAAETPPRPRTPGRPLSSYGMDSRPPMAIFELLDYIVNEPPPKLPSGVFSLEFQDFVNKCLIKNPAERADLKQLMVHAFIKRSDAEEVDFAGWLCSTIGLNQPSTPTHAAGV
KDR kinase (VEGFR2), sequence (P35968 20-1356): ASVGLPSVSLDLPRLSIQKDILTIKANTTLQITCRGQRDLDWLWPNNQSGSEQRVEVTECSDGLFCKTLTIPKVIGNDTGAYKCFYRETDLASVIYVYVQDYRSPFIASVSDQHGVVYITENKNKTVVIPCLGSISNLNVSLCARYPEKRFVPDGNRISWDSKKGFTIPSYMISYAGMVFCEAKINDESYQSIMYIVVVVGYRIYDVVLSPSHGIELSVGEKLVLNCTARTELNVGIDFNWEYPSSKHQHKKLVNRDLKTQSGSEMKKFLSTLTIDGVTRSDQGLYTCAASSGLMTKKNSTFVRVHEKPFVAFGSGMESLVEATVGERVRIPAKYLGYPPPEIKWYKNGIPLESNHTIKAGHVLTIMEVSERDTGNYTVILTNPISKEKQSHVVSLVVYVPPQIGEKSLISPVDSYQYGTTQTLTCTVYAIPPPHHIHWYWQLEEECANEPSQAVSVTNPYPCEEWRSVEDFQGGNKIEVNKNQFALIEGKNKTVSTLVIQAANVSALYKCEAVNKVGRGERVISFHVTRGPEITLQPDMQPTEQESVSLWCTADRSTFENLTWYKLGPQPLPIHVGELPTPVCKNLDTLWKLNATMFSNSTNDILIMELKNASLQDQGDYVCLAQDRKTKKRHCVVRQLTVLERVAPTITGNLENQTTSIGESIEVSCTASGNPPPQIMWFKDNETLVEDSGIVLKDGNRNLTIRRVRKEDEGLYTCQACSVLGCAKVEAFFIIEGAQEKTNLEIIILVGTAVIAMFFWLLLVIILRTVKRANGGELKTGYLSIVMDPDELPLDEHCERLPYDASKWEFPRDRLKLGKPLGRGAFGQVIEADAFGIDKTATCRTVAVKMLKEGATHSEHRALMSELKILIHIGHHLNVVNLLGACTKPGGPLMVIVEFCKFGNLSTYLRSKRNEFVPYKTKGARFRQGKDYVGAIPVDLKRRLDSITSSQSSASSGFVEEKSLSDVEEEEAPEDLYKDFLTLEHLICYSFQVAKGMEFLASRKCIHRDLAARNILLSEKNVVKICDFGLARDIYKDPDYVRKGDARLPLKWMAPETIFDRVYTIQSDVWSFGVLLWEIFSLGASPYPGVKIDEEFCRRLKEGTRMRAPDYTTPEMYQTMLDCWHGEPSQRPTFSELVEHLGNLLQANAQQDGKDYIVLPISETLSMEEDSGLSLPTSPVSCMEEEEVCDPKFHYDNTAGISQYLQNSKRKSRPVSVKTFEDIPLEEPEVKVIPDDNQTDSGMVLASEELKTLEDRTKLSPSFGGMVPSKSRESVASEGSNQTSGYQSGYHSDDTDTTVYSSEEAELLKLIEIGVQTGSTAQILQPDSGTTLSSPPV

Regarding `COc1ccc2c(c1)C(=Cc1ccc3c(-c4ccc(N5CCN(C)CC5)nc4)n[nH]c3c1)C(=O)N2` (mixture of isomers) [Example A97, (E and Z)-5-methoxy-3-((3-(6-(4-methylpiperazin-1-yl)pyridin-3-yl)-1H-indazol-6-yl)methylene)indolin-2-one], the inhibition at 10 µM came out at 9% at IRK (InsR); 24% on Src kinase; 37% on RSK2; 3% on CHK1; 89% at Lck kinase; 85% at Lyn. The inhibition at 10 µM on PKA was 0%; on Syk it was 21%; at MEK1/MAP2K1, 9%; at ERK2 (P42mapk), -9%; at ERK1 it was 10%; at PKCb1 it was 2%. Moreover, the inhibition at 10 µM at MAPKAPK2 is 4%; on IGF1R kinase it was 4%; at ROCK2, 22%; on Brk it was 7%; at KDR kinase (VEGFR2) it was 93%.

On to `O=C1Nc2ccccc2/C1=C\c1ccc2[nH]nnc2c1` [Example A1, (E)-3-((1H-benzo[d][1,2,3]triazol-5-yl)methylene)indolin-2-one], for which the inhibition at 10 µM was 13% at IRK (InsR); 10% on Src kinase; 4% at RSK2; -6% on CHK1; 14% at Lyn; 9% on PKA. For the same compound, the inhibition at 10 µM is -2% at Syk; 20% on MEK1/MAP2K1; 3% on ERK2 (P42mapk); 6% on ERK1; 1% on PKCb1; 6% on MAPKAPK2. Besides, the inhibition at 10 µM was found to be 7% at IGF1R kinase, 1% on ROCK2, 5% at Brk and 59% on KDR kinase (VEGFR2).

In the case of `O=C1Nc2ccccc2/C1=C\c1ccc2c(/C=C/c3ccccc3Cl)n[nH]c2c1` [Example A60, (E)-3-((3-((E)-2-chlorostyryl)-1H-indazol-6-yl)methylene)indolin-2-one], the inhibition at 10 µM was 6% at IRK (InsR); 0% on Src kinase; 0% at RSK2; -1% at CHK1; 30% at Lck kinase; 88% at Lyn. Besides, the inhibition at 10 µM was determined as 7% at PKA; 16% at MEK1/MAP2K1; 2% at ERK2 (P42mapk); 1% on ERK1; 0% on PKCb1; 19% on MAPKAPK2. Moreover, the inhibition at 10 µM was 81% at IGF1R kinase, -1% on ROCK2, 4% at Brk and 8% on KDR kinase (VEGFR2).

With `O=C1Nc2ccccc2/C1=C\c1ccc2cn[nH]c2c1` [Example A5, (E)-3-((1H-indazol-6-yl)methylene)indolin-2-one], the inhibition at 10 µM is 12% at IRK (InsR); -9% at Src kinase; 1% at RSK2; -2% at CHK1; 0% at Lck kinase; -5% at Lyn. The inhibition at 10 µM at PKA was -1%; on Syk it was -3%; at MEK1/MAP2K1, 3%; at ERK2 (P42mapk), 0%; on ERK1, 6%; at PKCb1, -5%. Also, the inhibition at 10 µM on MAPKAPK2 is 0%; at IGF1R kinase it was -4%; at ROCK2 it was 3%; on Brk it was -6%; on KDR kinase (VEGFR2), 29%.

With `O=C1Nc2ccccc2C1=Cc1ccc2c(/C=C/c3ccccn3)n[nH]c2c1` (mixture of isomers) [Example A41, (E and Z)-3-((3-((E)-2-(pyridin-2-yl)vinyl)-1H-indazol-6-yl)methylene)indolin-2-one], the inhibition at 10 µM was 34% on IRK (InsR); 59% at Src kinase; 38% at RSK2; 7% on CHK1; 88% on Lck kinase; 98% on Lyn. Moreover, the inhibition at 10 µM on PKA was -4%; at Syk it was 70%; on MEK1/MAP2K1, 46%; at ERK2 (P42mapk) it was 14%; on ERK1 it was 13%; at PKCb1 it was -2%. In addition, the inhibition at 10 µM at MAPKAPK2 was 0%; at IGF1R kinase, 43%; at ROCK2 it was -3%; at Brk, 40%; on KDR kinase (VEGFR2) it was 100%.

The record behind these values is patent publication US8765748B2, “Indazolyl, benzimidazolyl, benzotriazolyl substituted indolinone derivatives as kinase inhibitors useful in the treatment of cancer” (University Health Network, priority 2007, dated 2014).
